Values joined by “and” are separate entries in the source; they are usually repeats but may differ in a detail not shown here. Identical values can stand only once. Inconclusive results and toxic doses are left out. Peptide text beside a SMILES is read from it.
System: P388 leukemia ip, CD2F1 mice, survival T/C
Assay: NCI In Vivo Anticancer Drug Screen. Data for tumor model P388 Leukemia (intraperitoneal) in CD2F1 (CDF1) mice
Conditions: endpoint: median survival time, higher = longer survival
In short: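 Mice carrying the transplanted tumor received test compound or vehicle. Survival was recorded in each group, and the value is the treated-group measurement divided by that of the vehicle-treated control group.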

[1] = dose: 60.0 mg/kg/injection, schedule: Q01DX005 (ip), vehicle: saline with Tween-80
[2] = dose: 120.0 mg/kg/injection, schedule: Q01DX005 (ip), vehicle: saline with Tween-80
[3] = dose: 240.0 mg/kg/injection, schedule: Q01DX005 (ip), vehicle: saline with Tween-80
[4] = dose: 50.0 mg/kg/injection, schedule: Q01DX005 (ip), vehicle: saline
[5] = dose: 100.0 mg/kg/injection, schedule: Q01DX005 (ip), vehicle: saline
[6] = dose: 200.0 mg/kg/injection, schedule: Q01DX005 (ip), vehicle: saline
[7] = dose: 100.0 mg/kg/injection, schedule: Q01DX001 (ip), vehicle: Klucel (hydroxypropylcellulose) (HPC)
[8] = dose: 60.0 mg/kg/injection, schedule: Q01DX005 (ip), vehicle: Klucel (hydroxypropylcellulose) (HPC)
[9] = dose: 120.0 mg/kg/injection, schedule: Q01DX005 (ip), vehicle: Klucel (hydroxypropylcellulose) (HPC)

With `CNc1ccc(CN2CCCCC2)cc1C` the T/C (dose: 0.93 mg/kg/injection, schedule: Q01DX005 (ip), vehicle: Klucel (hydroxypropylcellulose) (HPC)) was 100 % of control and 92 % of control, the T/C (dose: 1.87 mg/kg/injection, schedule: Q01DX005 (ip), vehicle: Klucel (hydroxypropylcellulose) (HPC)) was 100 % of control and 97 % of control and the T/C (dose: 3.75 mg/kg/injection, schedule: Q01DX005 (ip), vehicle: Klucel (hydroxypropylcellulose) (HPC)) was 99 % of control and 95 % of control and 96 % of control.
For `COc1cc(C(NC(N)=O)c2cc3c(cc2O)OCO3)cc(OC)c1OC` (stereo not given), the T/C [1] was 106 % of control, the T/C [2] was 102 % of control and the T/C [3] was 100 % of control.
For `NCCCCC(NC(=O)C(N)Cc1cnc[nH]1)C(=O)O` (stereo not drawn) (H-His-Lys-OH; configuration not given here), the T/C [4] was 99 % of control, the T/C [5] was 108 % of control and the T/C [6] was 100 % of control.
`CCCNC(=O)N1C2C3CCC(C)(OC3(C)C)C21` (stereo not given) was tested, and the T/C [4] was 106 % of control, the T/C [5] was 100 % of control and the T/C [6] was 98 % of control.
In the case of `CCC(O)(CC)/C(C)=N/O`, the T/C (dose: 50.0 mg/kg/injection, schedule: Q01DX009 (ip), vehicle: saline with Tween-80) is reported as 91 % of control, the T/C (dose: 100.0 mg/kg/injection, schedule: Q01DX009 (ip), vehicle: saline with Tween-80) is reported as 89 % of control and the T/C (dose: 200.0 mg/kg/injection, schedule: Q01DX009 (ip), vehicle: saline with Tween-80) is reported as 94 % of control.
With `CCN(CC)C(=O)c1c(C(=O)OC)c(C)n(NC(=O)c2cccc(C)c2)c1C` the T/C [1] was 90 % of control and the T/C [2] was 87 % of control.
For `CC(=O)Nc1ccc(S(=O)(=O)c2ccc([N+](=O)[O-])s2)cc1`, the T/C (dose: 25.0 mg/kg/injection, schedule: Q04DX003 (ip), vehicle: Klucel (hydroxypropylcellulose) (HPC)) was 105 % of control and the T/C (dose: 50.0 mg/kg/injection, schedule: Q04DX003 (ip), vehicle: Klucel (hydroxypropylcellulose) (HPC)) was 102 % of control.
`O=[N+](N=c1ccn([O-])cc1)c1cc[n+]([O-])cc1` was tested, and the T/C (dose: 1.56 mg/kg/injection, schedule: Q01DX009 (ip), vehicle: DMSO) was 107 % of control, the T/C (dose: 3.0 mg/kg/injection, schedule: Q01DX009 (ip), vehicle: other) was 107 % of control and the T/C (dose: 3.12 mg/kg/injection, schedule: Q01DX009 (ip), vehicle: DMSO) was 100 % of control. For the same molecule, the T/C (dose: 6.0 mg/kg/injection, schedule: Q01DX009 (ip), vehicle: other) was 102 % of control, the T/C (dose: 6.25 mg/kg/injection, schedule: Q01DX009 (ip), vehicle: DMSO) was 107 % of control and the T/C (dose: 12.5 mg/kg/injection, schedule: Q01DX009 (ip), vehicle: DMSO) was 100 % of control. For the same molecule, the T/C (dose: 12.5 mg/kg/injection, schedule: Q01DX009 (ip), vehicle: other) was 98 % of control, the T/C (dose: 25.0 mg/kg/injection, schedule: Q01DX009 (ip), vehicle: DMSO) was 100 % of control and the T/C (dose: 25.0 mg/kg/injection, schedule: Q01DX009 (ip), vehicle: other) was 109 % of control. The T/C (dose: 50.0 mg/kg/injection, schedule: Q01DX009 (ip), vehicle: other) was 109 % of control.
With `Cc1cc(=O)oc2c1ccc1occc(=O)c12` the T/C [1] was 96 % of control, the T/C [2] was 102 % of control and the T/C [3] was 100 % of control.
For `O=C1c2cccc3cc([N+](=O)[O-])cc(c23)C(=O)N1CCNCCNCCNCCN1C(=O)c2cccc3cc([N+](=O)[O-])cc(c23)C1=O`, the T/C (dose: 5.0 mg/kg/injection, schedule: Q04DX002 (ip), vehicle: saline with Tween-80) was 107 % of control and 124 % of control, the T/C (dose: 10.0 mg/kg/injection, schedule: Q04DX002 (ip), vehicle: saline with Tween-80) was 122 % of control and the T/C (dose: 80.0 mg/kg/injection, schedule: Q04DX002 (ip), vehicle: saline with Tween-80) was 122 % of control.
With `NC(=O)CCCC(C(N)=O)(c1ccccc1)c1ccccc1` the T/C [7] was 101 % of control, the T/C (dose: 200.0 mg/kg/injection, schedule: Q01DX001 (ip), vehicle: Klucel (hydroxypropylcellulose) (HPC)) was 100 % of control and the T/C (dose: 400.0 mg/kg/injection, schedule: Q01DX001 (ip), vehicle: Klucel (hydroxypropylcellulose) (HPC)) was 100 % of control.
`Cc1c(Br)c(C)[n+]([O-])n1O` was tested, and the T/C [8] was 99 % of control and the T/C [9] was 95 % of control.
`C=CS(=O)(=NN1C(=O)c2ccccc2C1=O)c1ccc(C)cc1` (stereo not given) was tested, and the T/C (dose: 6.25 mg/kg/injection, schedule: Q01DX001 (ip), vehicle: Klucel (hydroxypropylcellulose) (HPC)) was 95 % of control, the T/C (dose: 12.5 mg/kg/injection, schedule: Q01DX001 (ip), vehicle: Klucel (hydroxypropylcellulose) (HPC)) was 98 % of control and the T/C (dose: 25.0 mg/kg/injection, schedule: Q01DX001 (ip), vehicle: Klucel (hydroxypropylcellulose) (HPC)) was 104 % of control and 95 % of control. The T/C (dose: 50.0 mg/kg/injection, schedule: Q01DX001 (ip), vehicle: Klucel (hydroxypropylcellulose) (HPC)) was 101 % of control and 104 % of control and the T/C [7] was 106 % of control and 113 % of control.
With `CCOc1c(N=Nc2ccccc2C)c(C)nn1C(=S)S` the T/C [8] was 97 % of control, the T/C [9] was 95 % of control and the T/C (dose: 240.0 mg/kg/injection, schedule: Q01DX005 (ip), vehicle: Klucel (hydroxypropylcellulose) (HPC)) was 97 % of control.
`Cc1c(O)c(O)cc[n+]1C1OC(CO)C(O)C1O` (stereo not given) was tested, and the T/C [5] was 98 % of control, the T/C [6] was 100 % of control and the T/C (dose: 400.0 mg/kg/injection, schedule: Q01DX005 (ip), vehicle: saline) was 102 % of control.
In the case of `COc1cc(N=Nc2cccc(C(=O)O)c2)ccc1N(CCCl)CCCl`, the T/C (dose: 6.25 mg/kg/injection, schedule: Q01DX009 (ip), vehicle: saline with Tween-80) is reported as 106 % of control, the T/C (dose: 12.5 mg/kg/injection, schedule: Q01DX009 (ip), vehicle: saline with Tween-80) is reported as 121 % of control and the T/C (dose: 25.0 mg/kg/injection, schedule: Q01DX009 (ip), vehicle: saline with Tween-80) is reported as 152 % of control.
With `NC1=NC(=S)C2N=C(N=Nc3ccc(C(=O)NC(CCC(=O)O)C(=O)O)cc3)N=C2N1` (stereo not given) the T/C (dose: 0.19 mg/kg/injection, schedule: Q01DX009 (ip), vehicle: Klucel (hydroxypropylcellulose) (HPC)) was 108 % of control and 120 % of control and the T/C (dose: 3.0 mg/kg/injection, schedule: Q01DX009 (ip), vehicle: Klucel (hydroxypropylcellulose) (HPC)) was 156 % of control.
With `O=C1CNC(=O)CN1` the T/C (dose: 50.0 mg/kg/injection, schedule: Q01DX009 (ip), vehicle: saline) was 96 % of control, the T/C (dose: 100.0 mg/kg/injection, schedule: Q01DX009 (ip), vehicle: saline) was 90 % of control and the T/C (dose: 100.0 mg/kg/injection, schedule: Q04DX003 (ip), vehicle: saline) was 100 % of control. For the same molecule, the T/C (dose: 200.0 mg/kg/injection, schedule: Q01DX009 (ip), vehicle: saline) was 97 % of control, the T/C (dose: 200.0 mg/kg/injection, schedule: Q04DX003 (ip), vehicle: saline) was 91 % of control and the T/C (dose: 400.0 mg/kg/injection, schedule: Q04DX003 (ip), vehicle: saline) was 100 % of control.
With `CSc1nc2nc[nH]c2c(=O)[nH]1` the T/C (dose: 12.5 mg/kg/injection, schedule: Q01DX005 (ip), vehicle: saline with Tween-80) was 100 % of control, the T/C (dose: 25.0 mg/kg/injection, schedule: Q01DX005 (ip), vehicle: saline with Tween-80) was 100 % of control and the T/C (dose: 50.0 mg/kg/injection, schedule: Q01DX005 (ip), vehicle: saline with Tween-80) was 101 % of control and 105 % of control. The T/C (dose: 100.0 mg/kg/injection, schedule: Q01DX005 (ip), vehicle: saline with Tween-80) was 101 % of control and the T/C (dose: 200.0 mg/kg/injection, schedule: Q01DX005 (ip), vehicle: saline with Tween-80) was 104 % of control.
`CCCN(CCC)CCCCCO` was tested, and the T/C (dose: 50.0 mg/kg/injection, schedule: Q04DX003 (ip), vehicle: saline with Tween-80) was 104 % of control, the T/C (dose: 100.0 mg/kg/injection, schedule: Q04DX003 (ip), vehicle: saline with Tween-80) was 100 % of control and the T/C (dose: 200.0 mg/kg/injection, schedule: Q04DX003 (ip), vehicle: saline with Tween-80) was 100 % of control.
